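48-hour exposure; five concentrations; linearly interpolated endpoints. Abbreviation: GI50, concentration required for 50% inhibition of growth.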 Active and inactive are the calls of the source. No stated cut-off is given here; in the data, active = GI50 up to about 1.1 µM and inactive = higher.
Key:
Experiment in all cases: DTP human tumour cell line panel, 48 h
BT-549 = system: BT-549
CCRF-CEM = system: CCRF-CEM
DU-145 = system: DU-145
EKVX = system: EKVX
Hs-578T = system: Hs-578T
IGROV-1 = system: IGROV-1
K562 = system: K562
KM12 = system: KM12
MDA-MB-435 = system: MDA-MB-435
MDA-N = system: MDA-N
MOLT-4 = system: MOLT-4
NCI-H226 = system: NCI-H226
PC-3 = system: PC-3
SF-295 = system: SF-295
UACC-257 = system: UACC-257
786-0 = system: 786-0
A498 = system: A498
KM-20L2 = system: KM-20L2
M19-MEL = system: M19-MEL
XF498 = system: XF498

Measured: GI50

Cc1cc(C)c(S(=O)(=O)N(CCCCN)OCCCN)c(C)c1
inactive: BT-549 19.1 µM | CCRF-CEM 15.7 µM | DU-145 15.6 µM | EKVX 16.4 µM | Hs-578T 16 µM | IGROV-1 13.6 µM | K562 13.9 µM | KM12 19.5 µM | MDA-MB-435 16.6 µM | MDA-N 16.4 µM | MOLT-4 11.7 µM | NCI-H226 16.5 µM | PC-3 13.3 µM | SF-295 19.6 µM | UACC-257 16.2 µM

COC(=O)[C@@H]1O[C@]12[C@@H](CO[Si](C)(C)C(C)(C)C)O[C@@H](n1cc(C)c(=O)[nH]c1=O)[C@@H]2O[Si](C)(C)C(C)(C)C
inactive: BT-549 15.9 µM | CCRF-CEM 2.39 µM | DU-145 18.2 µM | EKVX 23.5 µM | Hs-578T 19.1 µM | IGROV-1 5.64 µM | K562 7.96 µM | KM12 23 µM | MDA-MB-435 19.5 µM | MDA-N 12.9 µM | MOLT-4 2.84 µM | NCI-H226 21 µM | PC-3 20.4 µM | SF-295 21.2 µM | UACC-257 22.4 µM

C/C(=N\Nc1nc2ccccc2[nH]1)c1cccc[n+]1[O-]
inactive: 786-0 > 100 µM | A498 > 100 µM | BT-549 > 100 µM | CCRF-CEM > 100 µM | DU-145 > 100 µM | EKVX 3.03 µM | Hs-578T > 100 µM | IGROV-1 63.4 µM | K562 > 100 µM | KM12 44.7 µM | MDA-MB-435 > 100 µM | MDA-N > 100 µM | MOLT-4 > 100 µM | NCI-H226 45.4 µM | PC-3 > 100 µM | SF-295 3.48 µM | UACC-257 > 100 µM

O=C(O)c1cnc2c(ccc3ncc(C(=O)O)c(O)c32)c1O
inactive: 786-0 > 100 µM | A498 > 100 µM | BT-549 > 100 µM | DU-145 > 100 µM | EKVX > 100 µM | Hs-578T > 100 µM | IGROV-1 > 100 µM | K562 > 100 µM | KM12 > 100 µM | MDA-MB-435 > 100 µM | MDA-N > 100 µM | MOLT-4 > 100 µM | NCI-H226 > 100 µM | PC-3 > 100 µM | SF-295 > 100 µM | UACC-257 > 100 µM

COc1cc(C2C(C(=O)O)=C(COC(C)=O)Oc3cc4c(cc32)OCO4)cc(OC)c1OC (stereo not given)
inactive: CCRF-CEM > 100 µM | EKVX > 100 µM | IGROV-1 > 100 µM | K562 > 100 µM | KM-20L2 > 100 µM | M19-MEL > 100 µM | MOLT-4 > 100 µM | SF-295 > 100 µM | UACC-257 > 100 µM | XF498 > 100 µM

OC(c1cc(C(F)(F)F)nc2c(Cl)cc(Cl)cc12)C1CCCCN1 (stereo not given)
inactive: 786-0 13.3 µM | A498 > 36.1 µM | BT-549 14.5 µM | CCRF-CEM 1.27 µM | DU-145 7.01 µM | EKVX > 100 µM | Hs-578T > 22.4 µM | IGROV-1 6.4 µM | K562 5.22 µM | KM12 6.3 µM | MDA-MB-435 5.61 µM | MDA-N 77.1 µM | MOLT-4 6.38 µM | NCI-H226 16.8 µM | PC-3 > 22.5 µM | SF-295 12.2 µM

O=NN1CCN=C1c1ccc([N+](=O)[O-])cc1
inactive: 786-0 > 100 µM | IGROV-1 > 100 µM | K562 > 100 µM | KM-20L2 > 100 µM | KM12 > 100 µM | M19-MEL > 100 µM | MOLT-4 > 100 µM | NCI-H226 > 100 µM | SF-295 > 100 µM | UACC-257 > 100 µM | XF498 > 100 µM

O=C(O)C1(C(O)c2ccccc2)SCCCS1 (stereo not given)
inactive: 786-0 > 10 µM | A498 > 10 µM | BT-549 > 10 µM | CCRF-CEM > 10 µM | DU-145 > 10 µM | EKVX > 10 µM | Hs-578T > 10 µM | IGROV-1 > 10 µM | K562 > 10 µM | KM12 > 10 µM | MDA-MB-435 > 10 µM | MDA-N > 10 µM | MOLT-4 > 10 µM | NCI-H226 > 10 µM | PC-3 > 10 µM | SF-295 > 10 µM | UACC-257 > 10 µM

COc1ccc(C2C(=O)c3ccc(OC)cc3OC2c2cccnc2)cc1 (stereo not given)
inactive: 786-0 83.2 µM | A498 > 100 µM | BT-549 49.9 µM | CCRF-CEM > 100 µM | DU-145 > 100 µM | EKVX > 100 µM | Hs-578T 45.1 µM | IGROV-1 > 100 µM | K562 > 100 µM | KM12 > 100 µM | MDA-MB-435 > 100 µM | MDA-N > 100 µM | MOLT-4 > 100 µM | NCI-H226 44.2 µM | PC-3 > 100 µM | SF-295 46.6 µM | UACC-257 > 100 µM

CC(C)(C)N1C(C(=O)c2ccccc2)C1c1ccccc1 (stereo not given)
inactive: CCRF-CEM > 100 µM | EKVX > 100 µM | IGROV-1 > 100 µM | K562 > 100 µM | KM12 > 100 µM | M19-MEL > 100 µM | MOLT-4 > 100 µM | NCI-H226 > 100 µM | UACC-257 > 100 µM

O=c1c(-c2ccc(O)cc2)coc2cc(O)cc(O)c12 [GENISTEIN]
inactive: 786-0 43.2 µM | BT-549 88.3 µM | CCRF-CEM > 10 µM | DU-145 92.5 µM | EKVX 63.1 µM | Hs-578T 65.2 µM | IGROV-1 71.6 µM | K562 > 100 µM | KM12 > 100 µM | MDA-MB-435 > 100 µM | MDA-N > 100 µM | MOLT-4 40.4 µM | NCI-H226 74.1 µM | PC-3 > 100 µM | SF-295 55 µM

c1c2c(cc(-n3nnc4c3CCCCCC4)c1-n1nnc3c1CCCCCC3)CCCCCC2
inactive: A498 10.4 µM | CCRF-CEM 3.79 µM | EKVX 10.7 µM | IGROV-1 18.3 µM | K562 4.36 µM | KM12 11.8 µM | M19-MEL 8.77 µM | MOLT-4 2.57 µM | NCI-H226 16 µM | SF-295 12 µM | UACC-257 11.7 µM | XF498 1.9 µM

Fc1ccccc1C1CC(C(c2ccccc2)c2ccccc2)=Nc2ccccc2S1 (stereo not given)
inactive: 786-0 4.23 µM | A498 6.53 µM | CCRF-CEM 1.91 µM | EKVX 10.3 µM | IGROV-1 6.95 µM | K562 2.73 µM | KM-20L2 6.53 µM | KM12 5.38 µM | MOLT-4 2.71 µM | NCI-H226 13 µM | SF-295 9.48 µM | UACC-257 12.9 µM | XF498 13.7 µM

N#C/C(N)=C(C#N)/N=C/NCc1ccccc1
inactive: 786-0 > 100 µM | A498 > 100 µM | BT-549 > 100 µM | CCRF-CEM > 100 µM | DU-145 > 100 µM | EKVX > 100 µM | Hs-578T > 100 µM | IGROV-1 > 100 µM | K562 > 100 µM | KM12 > 100 µM | MDA-MB-435 > 100 µM | MDA-N > 100 µM | MOLT-4 > 100 µM | NCI-H226 > 100 µM | PC-3 > 100 µM | SF-295 > 100 µM | UACC-257 > 100 µM
